Experiment [1] has as its system PIL5 cells. Description: Luciferase gene reporter assay for Type I interferon: IFN sensitivity of PIL5 cells treated with anti-mitotic agent, frozen and thawed. Type of experiment: cell-based, human. The protocol:
• 1. Remove protective cover from the sample preparation micro-plate (Plate A). • 2. Add 100 μl of the diluent (RPMI 1640 medium without serum) to wells A1 through A6 and B1 through B6 of the sample preparation plate (Plate A). • 3. Add 100 μl of the interferon (IFN) reference preparation to wells A1 and B1 of Plate A containing 100 μl of diluent. • 4. Carry out serial two-fold dilutions of the IFN reference preparation in Plate A from wells A1 and B1 through wells A6 and B6 using a multi-channel micro-pipette. Sample preparation • 1. Add 100 μl of the diluent to the wells of the sample preparation plate (Plate A) where required. • 2. Dilute samples to be tested if the estimated IFN titer of the samples is greater than 100 IU/ml. • 3. Dilute samples appropriately in the sample preparation micro-plate (Plate A) Assay Procedure • 1. Rapidly thaw the 96-well PIL5 assay micro-plate (Plate B) on a flat surface with the cover uppermost. A water-bath set at 37° C. can be used for convenience. • 2. Dry protective cover with a paper hand towel, taking care to maintain the label uppermost. • 3. Carefully remove protective cover from the PIL5 assay micro-plate (Plate B) while maintaining the cover uppermost. • 4. Add 75 μl of each of the serial two-fold dilutions of the reference preparation to wells A1 and B1 through wells A6 and B6 of the PIL5 assay micro-plate (Plate B) using a multi-channel micro-pipette. • 5. Add 75 μl of each undiluted or appropriately diluted sample to the PIL assay micro-plate […]. • 6. Incubate the PIL5 assay micro-plate (Plate B) overnight at 37° C. in an atmosphere of 5% CO2 in air. A CO2 incubator can be used for convenience. • 7. […] Determine the luminescence of the samples using a micro-plate luminometer (LUMICOUNT, Packard). […] Plot standard curve from the mean of the luminescence readings for each dilution of the IFN reference preparation calibrated against the NIH international reference standard for HuIFN-α (G-023-901-527) using Microsoft EXCEL. • 2. […]

Experiment [2] deals with PIL5 cells. Description: Prevention of cell replication of PIL5 cells by anti-mitotic and pro-apoptotic agent. Type of experiment: cell-based, human. Conditions: at the doses tested. The protocol: Studies on the effects of a variety of parameters, i.e., concentration of vinblastine, time of treatment with vinblastine, fetal bovine serum (FBS) concentration, glycerol concentration in the presence or absence of DMSO, SMSO concentration, cell density, on interferon sensitivity of frozen cells were conducted to determine optimal conditions. It may not be apparent from the results shown in FIG. 12 why vinblastine instead of 5-FU was chosen as the more preferred anti-mitotic and pro-apoptotic agent for treatment of PIL5 cells prior to freezing.

Here are results for three compounds from US9188580B2, “Gene reporter assay, kit, and cells for determining the presence and/or the level of a molecule that activates signal transduction activity of a cell surface protein” (LE CENTRE NATIONALE DE LA RECHERCHE SCIENTIFIQUE, priority 2002, dated 2015).

As to `O=c1[nH]cc(F)c(=O)[nH]1` [5-FU, 5-fluorouracil], in the experiment on PIL5 cells [1] (treatment prior to freezing, compared with vinblastine, FIG. 12), the “maintaining interferon sensitivity of frozen PIL5 cells” value was “superior to vinblastine”. The preventing cell replication entry in the experiment with PIL5 cells [2] was “not found to be sufficiently effective”.

Turning to `C[S+](C)[O-]` [DMSO, dimethyl sulfoxide], the “protection of cells frozen at −20° C. and effect on sensitivity to IFN” value in the experiment with PIL5 cells [1] (no special freezing or thawing techniques, FIG. 11) is given as “without adversely affecting their sensitivity to IFN”.

Consider `CC[C@]1(O)C[C@@H]2CN(CCc3c([nH]c4ccccc34)[C@@](C(=O)OC)(c3cc4c(cc3OC)N(C)[C@H]3[C@@](O)(C(=O)OC)[C@H](OC(C)=O)[C@]5(CC)C=CCN6CC[C@]43[C@@H]65)C2)C1` [vinblastine], for which the “IFN sensitivity of PIL5 cells after treatment and freezing” value with PIL5 cells [1] (100 μM vinblastine, 1.0 hour at 37° C., one month at −20° C., FIG. 11) is on record as “retain full IFN sensitivity”.
